Earlier results as cited in publication PMC6376154 (International Journal for Parasitology: Drugs and Drug …, 2019).
Where two headings read alike, the source gives them in different places.

Test system: P. falciparum 3D7 asexual blood stage
Conditions: cited from earlier work
[1] = MMV Malaria Box data sheet, ref MMV data sheets
[2] = MMV Malaria Box data sheet, ref MMV data sheets, read-out: EC50_nM
[3] = source GNF, ref ChEMBL_NTD, read-out: CHEMBL EC50
[4] = MMV Malaria Box data sheet (supplement mmc2.xls), ref MMV data sheet, read-out: EC50_nM
[5] = value(s) per source (GSK, GNF, StJude), separated by semicolon, ref ChEMBL-NTD, read-out: CHEMBL EC50
[6] = ChEMBL-NTD value per source (GNF, GSK, StJude), several values in a cell follow the order of the sources, read-out: CHEMBL EC50
[7] = MMV Malaria Box sheet, ref MMV data sheets
[8] = MMV Malaria Box sheet, ref MMV data sheets, read-out: EC50_nM
[9] = MMV Malaria Box data sheet (supplement mmc2.xls), ref MMV data sheet
[10] = source GSK, ref ChEMBL_NTD, read-out: CHEMBL EC50

Cc1cc(C)c2c(c1)OCN(Cc1ccccc1Cl)C2 [MMV006558]
percent_inh @ 5 uM [1]: 98% | EC50 [2]: 0.268 µM | EC50 [3]: 0.192 µM

Clc1ccc2[nH]c3c(NCCCN4CCOCC4)ncnc3c2c1 [MMV006587]
EC50 [4]: 0.7 µM | EC50 [5]: 0.109 µM

CCOC(=O)C1=CN(C)C=C(C(=O)OCC)C1c1cc(Br)c(OCC)c(OC)c1 [MMV006656]
EC50 [6]: 0.913 µM

CN(C)CCNc1cc(-c2ccccc2)nc2ccccc12 [MMV006704]
percent_inh @ 2 uM [7]: 92% | EC50 [8]: 4 µM | EC50 [3]: 0.692 µM

Cc1cc(N2CCN(C3CCCC3)CC2)n2c(nc3ccccc32)c1C#N [MMV006706]
EC50 [4]: 0.683 µM | EC50 [5]: 0.743 µM

Cc1cc(=O)oc2c1ccc1oc(C(=O)c3ccccc3)c(C)c12 [MMV006753]
percent_inh @ 5 uM [7]: 94% | EC50 [3]: 0.441 µM

CCOc1c(Br)cc(C2C(C(=O)OC)=CN(C)C=C2C(=O)OC)cc1OC [MMV006764]
EC50 [6]: 0.292 µM

COc1cc2cc(C(=O)Nc3ccccc3)c(N)nc2cc1OC [MMV006767]
percent_inh @ 5 uM [9]: 99%

CC(C)CCNCC(O)Cn1c2ccccc2c2ccccc21 (centres unmarked) [MMV006787]
percent_inh @ 5 uM [7]: 97% | EC50 [8]: 0.473 µM | EC50 [3]: 0.201 µM

CCCCc1c(C)nc2c(OC)cccc2c1O [MMV006820]
percent_inh @ 2 uM [7]: 92% | EC50 [8]: 4 µM | EC50 [3]: 1.69 µM

COc1ccc(Nc2cc(C)nc(NCc3ccccc3)n2)cc1 [MMV006825]
EC50 [6]: 0.151 µM

c1ccc2cc3c(Nc4ccc(N5CCOCC5)cc4)ccnc3cc2c1 [MMV006861]
percent_inh @ 5 uM [1]: 97% | EC50 [2]: 0.251 µM | EC50 [3]: 0.672 µM

CCOC(=O)c1cnc2ccc(Cl)cc2c1NCCCN(C)C [MMV006882]
percent_inh @ 5 uM [7]: 98% | EC50 [8]: 1.19 µM | EC50 [3]: 0.826 µM

C=CCc1c(C)nc2ccccc2c1O [MMV006913]
percent_inh @ 5 uM [9]: 85% | EC50 [4]: 1.29 µM | EC50 [5]: 0.707 µM

Cc1ccc(-c2cc3nc4c(c(O)n3n2)CCCC4)cc1 [MMV006937]
percent_inh @ 5 uM [1]: 73% | EC50 [2]: 0.396 µM | EC50 [3]: 1.6 µM

O=C(Nc1ccc(-c2nc3cc(NC(=O)c4ccc(Cl)cc4)ccc3[nH]2)cc1)c1ccc(Cl)cc1 [MMV006962]
% inh. At 1.25 uM (1.25 uM, solubility issue at 5 uM): Solubility issue at 5 uM. % inh. At 1.25 uM is 48 | EC50 [6]: 0.993 µM

CCOc1ccc2nc(C)cc(Nc3ccc(N(C)C)cc3)c2c1 [MMV007020]
EC50 [6]: 0.344 µM

Cc1ccc2c(C)nc(Nc3nc(C)cc(-c4ccccc4)n3)nc2c1 [MMV007041]
EC50 [6]: 0.975 µM

CCOc1ccc(CN2CCN(CC(O)COc3ccc(OCC(O)CN4CCN(Cc5ccc(OCC)cc5)CC4)cc3)CC2)cc1 (centres unmarked) [MMV007092]
EC50 [6]: 1.37 µM

c1ccc(C2=Nc3ccccc3N=C(c3ccccc3)c3ccccc32)cc1 [MMV007113]
EC50 [6]: 0.678 µM

CCOC(=O)c1cnc2ccc(CC)cc2c1O [MMV007116]
EC50 [2]: 0.351 µM | EC50 [3]: 0.716 µM

OC1=C2C(=Nc3ccccc3SC2c2ccc(Br)cc2)c2ccccc21 (centres unmarked) [MMV007127]
percent_inh @ 5 uM [7]: 97% | EC50 [8]: 0.567 µM | EC50 [3]: 0.337 µM

Cc1ccc(N2C3c4ccccc4N(S(=O)(=O)c4ccc(C)cc4)C2c2ccccc2N3S(=O)(=O)c2ccc(C)cc2)cc1 [MMV007160]
percent_inh @ 5 uM [1]: 97% | EC50 [2]: 0.0248 µM | EC50 [3]: 0.72 µM

Cc1cc(Nc2ccc(OCc3ccccc3)cc2)nc2cc(O)ccc12 [MMV007181]
EC50 [6]: 0.0736 µM

COc1ccccc1N1C(=N)SC(=Cc2ccc(OCc3ccccc3F)cc2)C1=O [MMV007199]
percent_inh @ 5 uM [7]: 95% | EC50 [8]: 0.478 µM

COc1ccc(OC)c(C2C3=C(CC(C)(C)CC3=O)N(c3ccc(Cl)c(Cl)c3)C3=C2C(=O)CC(C)(C)C3)c1 [MMV007208]
percent_inh @ 5 uM [7]: 90% | EC50 [8]: 0.912 µM | EC50 [3]: 0.43 µM

Cc1cccc(N2C(=O)C3C(C2=O)C2(c4ccccc4)C(=O)C3(c3ccccc3)C(c3ccc4c(c3)OCO4)=C2c2ccc3c(c2)OCO3)c1 (centres unmarked) [MMV007228]
EC50 [6]: 1.07 µM

Cc1ccc(F)cc1NC(=O)c1cc(Cl)ccc1Nc1ccccc1 [MMV007275]
EC50 [6]: 0.191 µM

CCOc1ccc(Nc2ccnc3cc(Cl)ccc23)cc1 [MMV007285]
EC50 [6]: 0.956 µM

CCc1ccc(Nc2cc(C)nc3nc(C)nn23)cc1 [MMV007374]
percent_inh @ 2 uM [9]: 81% | EC50 [4]: 4 µM | EC50 [5]: 0.574 µM

COc1ccc(-c2nc3cc(Cc4ccc5[nH]c(-c6ccc(OC)cc6)nc5c4)ccc3[nH]2)cc1 [MMV007384]
percent_inh @ 5 uM [1]: 98% | EC50 [2]: 0.176 µM | EC50 [3]: 0.234 µM

Cc1ccccc1OCCSc1nc2ccc(NC(=O)c3cccs3)cc2s1 [MMV007396]
EC50 [6]: 0.497 µM

O=C(NCc1ccco1)C1CCN(S(=O)(=O)c2ccc(Br)cc2)CC1 [MMV007430]
percent_inh @ 5 uM [9]: 93% | EC50 [4]: 0.939 µM | EC50 [5]: 0.362 µM

COc1cc2c3cc1Oc1c(OC)c(OC)cc4c1C(Cc1ccc(O)c(c1)Oc1ccc(cc1)CC3N(C)CC2)N(C)CC4 (centres unmarked) [MMV007474]
EC50 [6]: 0.997 µM

COc1ccc(CCNC(=O)c2cc(S(=O)(=O)N3CC(C)CC(C)C3)ccc2Sc2ccc(F)cc2)cc1OC (centres unmarked) [MMV007557]
percent_inh @ 5 uM [7]: 97% | EC50 [8]: 0.632 µM | EC50 [3]: 1.05 µM

Cc1ccc(Cn2c(N3CCC(C(=O)NCc4cccs4)CC3)nc3ccccc32)cc1 [MMV007564]
percent_inh @ 5 uM [1]: 73% | EC50 [2]: 0.947 µM | EC50 [3]: 0.529 µM | EC50 [10]: 0.748 µM

Cc1ccc(CSCc2ccc(C(=O)NC3CC3)o2)cc1 [MMV007571]
percent_inh @ 5 uM [9]: 97% | EC50 [4]: 0.635 µM | EC50 [5]: 0.418 µM

O=C(Nc1ccc(C23CC4CC(CC(c5ccccc5)(C4)C2)C3)cc1)c1cccs1 [MMV007574]
percent_inh @ 5 uM [7]: 96% | EC50 [8]: 0.826 µM | EC50 [3]: 0.645 µM

Cc1ccccc1OCCSc1nc2ccc(NC(=O)c3ccccc3)cc2s1 [MMV007577]
percent_inh @ 5 uM [7]: 93% | EC50 [8]: 1.12 µM | EC50 [3]: 9.76 µM

COc1ccc(C(=O)C(CCC(CNC(C)(C)C)C(=O)c2ccc(OC)cc2)CNC(C)(C)C)cc1 (centres unmarked) [MMV007591]
EC50 [6]: 1.12 µM

CC(=O)NCCc1nc2ccccc2n1Cc1ccc(C(C)C)cc1 [MMV007617]
percent_inh @ 5 uM [9]: 97% | EC50 [4]: 1.79 µM | EC50 [5]: 0.764 µM

Cc1ccc(C)c(-c2csc(Nc3ccc(C)c(C)c3)n2)c1 [MMV007654]
EC50 [6]: 0.493 µM

CCCCCCOC(=O)C1=C(C)NC(=O)NC1c1ccccc1F (centres unmarked) [MMV007686]
percent_inh @ 5 uM [1]: 95% | EC50 [2]: 0.106 µM | EC50 [3]: 6.76 µM

COc1ccc(C(C)=O)cc1N1C(=O)C2C(C1=O)C1(c3ccccc3)C(=O)C2(c2ccccc2)C(c2ccc(C)cc2)=C1c1ccc(C)cc1 (centres unmarked) [MMV007695]
percent_inh @ 5 uM [1]: 96% | EC50 [2]: 0.179 µM | EC50 [3]: 2.46 µM

CCCCc1c(CCC)c(=N)c2ccccc2n1C [MMV007764]
EC50 [6]: 0.311 µM

CCOc1ccccc1NC(=O)CN1CCN(C(=O)c2ccco2)CC1 [MMV007791]
percent_inh @ 5 uM [7]: 83% | EC50 [3]: 5.46 µM

COc1nc(Nc2ccc(C(C)C)cc2)nc(OC)n1 [MMV007808]
percent_inh @ 5 uM [9]: 88% | EC50 [4]: 1.14 µM | EC50 [5]: 0.677 µM

COc1ccc2c(c1)OC(O)(C(F)(F)C(F)(F)F)CC2=O (centres unmarked) [MMV007839]
EC50 [2]: 0.283 µM | EC50 [3]: 0.442 µM

COc1ccc2nc(C)cc(Nc3ccc(Cl)cc3)c2c1 [MMV007875]
percent_inh @ 2 uM [7]: 95% | EC50 [8]: 2 µM | EC50 [3]: 1.23 µM | EC50 [10]: 0.946 µM

CCCCN(CCCC)S(=O)(=O)c1ccc(NC(=O)c2ccco2)cc1 [MMV007881]
percent_inh @ 5 uM [7]: 78% | EC50 [3]: 1.43 µM

CCCCOc1ccc(C(=O)Nc2cc(C)on2)cc1 [MMV007906]
percent_inh @ 5 uM [9]: 73% | EC50 [5]: 3.16 µM

Cc1ccc(Nc2nc(-c3ccccn3)cs2)cc1 [MMV007907]
percent_inh @ 5 uM [1]: 79% | EC50 [2]: 0.35 µM | EC50 [3]: 0.407 µM

O=c1nc(C=Cc2ccc(Cl)cc2)oc2ccccc12 [MMV007977]
percent_inh @ 5 uM [9]: 76% | EC50 [4]: 0.995 µM

CCOc1ccc(CCNC(=O)c2cccs2)cc1OCC [MMV007978]
percent_inh @ 5 uM [7]: 95% | EC50 [3]: 0.89 µM

CN1CCN(c2c3c(c(C#N)c4nc5ccccc5n24)CCC3)CC1 [MMV008127]
percent_inh @ 2 uM [9]: 42% | EC50 [4]: 4 µM | EC50 [5]: 1.18 µM

O=C(O)C1Cc2c([nH]c3ccccc23)C(c2ccc(Cl)cc2Cl)N1 (centres unmarked) [MMV008138]
EC50 [2]: 0.35 µM | EC50 [3]: 1.02 µM | EC50 [10]: 0.954 µM

Cc1c(C)n(Cc2ccc(F)cc2)c2ccc(C(=O)NCc3ccco3)cc12 [MMV008149]
percent_inh @ 5 uM [9]: 52% | EC50 [5]: 0.0782 µM

CN1C=C(c2ccc3ccccc3n2)C(c2c[nH]c3ccccc23)c2ccccc21 (centres unmarked) [MMV008160]
EC50 [6]: 1.14 µM

COc1cc(OC)cc(N2C(=O)N(Cc3ccc(C(C)(C)C)cc3)c3ccccc3S2(=O)=O)c1 [MMV008173]
percent_inh @ 5 uM [7]: 97% | EC50 [8]: 1.43 µM | EC50 [3]: 3.75 µM

Oc1c2c(nc3cc(-c4ccccc4)nn13)CCCC2 [MMV008270]
percent_inh @ 5 uM [9]: 77% | EC50 [5]: 1.93 µM

CCOC(=O)c1cnc2c(C)cc(C)cc2c1Nc1ccc(OC)c(OC)c1 [MMV008294]
percent_inh @ 5 uM [1]: 96% | EC50 [2]: 0.232 µM | EC50 [3]: 1.78 µM

CCCc1c(CC)c(=N)c2ccccc2n1C [MMV008416]
percent_inh @ 5 uM [1]: 69% | EC50 [2]: 0.242 µM | EC50 [3]: 0.762 µM

COc1ccc(C2C(C(=O)Nc3cccc(OC)c3)c3ccccc3C(=O)N2C2CCCCC2)cc1 (centres unmarked) [MMV008455]
percent_inh @ 5 uM [7]: 97% | EC50 [8]: 1.18 µM | EC50 [3]: 1.11 µM

CCN1CCN(c2c(C(=O)c3ccccc3)cnc3cc(OC)c(OC)cc23)CC1 [MMV008474]
percent_inh @ 5 uM [7]: 59% | EC50 [3]: 3.02 µM
